The subject of series [1] is RSV (Group A, Long Strain). The series can be described thus: Antiviral cytopathic effect (CPE) protection assay, MTT readout. The class given is cell-based. The following applies: human respiratory syncytial virus, 96 h; HEp-2 cells, 0.2 MOI RSV, 4 days incubation, protection from CPE by MTT. As for the experimental part: HEp-2 cells and RSV (Group A, Long Strain) were obtained from the American Type Culture Collection (Manassas, Va.).
A cytopathic effect (CPE) protection assay was performed to determine the ability of a compound to protect the cells from viral infection and thus the CPE induced by viral infection. 96-Well plates were first seeded with 3×10^3 HEp-2 cells per well in Dulbecco's modified Eagle's medium (DMEM) containing 10% fetal bovine serum (FBS). One day after the cells were seeded, they were preincubated with serial dilutions of compounds prepared in 100 μL assay medium (DMEM mixed with F12 medium at a 1:1 ratio, supplemented with 2% FBS and 1 mM sodium pyruvate) for 1 hour at 37° C. 100 μL of assay medium containing 0.2 multiplicity of infection (MOI) of RSV was then added to each well of cells. In addition to wells containing infected cells incubated with compounds, each plate also contained replicates of two kinds of controls: (1) Virus control contained cells infected with 0.2 MOI of RSV in assay medium, (2) Uninfected cell control contained cells incubated with assay medium only. After 4 days of incubation at 37° C., the viability of cells was assessed using MTT (Thiazolyl blue tetrazolium bromide, Sigma). A stock solution of MTT, at a concentration of 4 mg/mL in phosphate-buffered saline, was added to all wells at 25 μL per well. Plates were further incubated for 4 hours, and each well was then treated with 50 μL of a solution containing 20% sodium dodecyl sulfate (SDS) and 0.02 N HCl. After an overnight incubation, the plates were measured on a BioTek® microtiter plate reader at wavelengths of 570 nm and 650 nm. The MTT detection is based on the fact that viable (uninfected) cells can reduce the tetrazolium salts into colored formazan products, which can then be quantitated by spectrometry. Based on the spectrometric absorbance of each sample, the percent of protection from CPE, which is an indicator of protection from viral infection, can be calculated for each compound and the 50% effective concentrations (EC50) can be calculated using a nonlinear regression curve fitting equation provided by the GraphPad Prism® 4 software.
Compounds were tested to determine both their antiviral and toxicity to determine their therapeutic window. Determination of the EC50 and TD50 of these active compounds were repeated one additional time to confirm the window.
Background: Protection from cytopathic effect is a common read-out in antiviral testing.

The test system of another series is HEp-2 cells. The series can be described thus: Cytotoxicity assay (MTT) in parallel with the antiviral assay. The class given is cell-based. The method, then: HEp-2 cells and RSV (Group A, Long Strain) were obtained from the American Type Culture Collection (Manassas, Va.). Cytotoxicity of the compounds was determined in experiments done in parallel with the antiviral assays. To do this, 100 μL of assay medium was added to the wells of HEp-2 cells pretreated with 100 μL serially diluted compounds as described above. After 4 days of incubation, the viability of the cells was determined by the MTT assay in the same way as detailed in the “Antiviral Assay” method. Results were expressed as 50% toxicity dose (TD50) values. Compounds were tested to determine both their antiviral and toxicity to determine their therapeutic window. Determination of the EC50 and TD50 of these active compounds were repeated one additional time to confirm the window.

The mark [2] stands for this setting: uninfected HEp-2 cells, 4 days incubation, MTT viability.

Structures are written as SMILES.

Take `Cc1ccccc1CN(Cc1cccn1-c1nncs1)Cc1cccn1-c1nncs1` [Example 12, 1-(2-methylphenyl)-N,N-bis{[1-(1,3,4-thiadiazol-2-yl)-1H-pyrrol-2-yl]methyl}methanamine]: the response in series [1] was half-maximal at 64 nM (EC50). The “MTT TD50” value with HEp-2 cells (setting [2]) is over 10 µM.

Consider `C[C@H](c1ccc(F)cc1)N(Cc1cccn1-c1nncs1)Cc1cccn1-c1nncs1` [Example 13, (1R)-1-(4-fluorophenyl)-N,N-bis{[1-(1,3,4-thiadiazol-2-yl)-1H-pyrrol-2-yl]methyl}ethanamine], for which the EC50 (as a rule, the concentration at which the effect is half-maximal) in series [1] is 14000 nM. Also, the “MTT TD50” value in the series with HEp-2 cells (setting [2]) amounted to 93 µM.

In the case of `Clc1cnc(CN(Cc2cccn2-c2nncs2)Cc2cccn2-c2nncs2)c(Cl)c1` [Example 14, 1-(3,5-dichloropyridin-2-yl)-N,N-bis{[1-(1,3,4-thiadiazol-2-yl)-1H-pyrrol-2-yl]methyl}methanamine], the concentration for a half-maximal effect (EC50) in series [1] was 4800 nM. Besides, the “MTT TD50” value in the series with HEp-2 cells (setting [2]) is 90 µM.

For the molecule `Fc1ccccc1CN(Cc1cccn1-c1nncs1)Cc1cccn1-c1nncs1` [Example 15, 1-(2-fluorophenyl)-N,N-bis{[1-(1,3,4-thiadiazol-2-yl)-1H-pyrrol-2-yl]methyl}methanamine], in series [1], the EC50 worked out at 120 nM. In addition, the “MTT TD50” value with HEp-2 cells (setting [2]) came to 67 µM.

The molecule `FC(F)(F)c1cccc(CN(Cc2cccn2-c2nncs2)Cc2cccn2-c2nncs2)c1` [Example 16, 1-[1-(1,3,4-thiadiazol-2-yl)-1H-pyrrol-2-yl]-N-{[1-(1,3,4-thiadiazol-2-yl)-1H-pyrrol-2-yl]methyl}-N-[3-(trifluoromethyl)benzyl]methanamine] showed an EC50 in series [1] of 2100 nM. For the same molecule, the “MTT TD50” value with HEp-2 cells (setting [2]) is 30 µM.

With `CC(c1ccc(Cl)c(Cl)c1)N(Cc1cccn1-c1nncs1)Cc1cccn1-c1nncs1` (centres unmarked) [Example 17, 1-(3,4-dichlorophenyl)-N,N-bis{[1-(1,3,4-thiadiazol-2-yl)-1H-pyrrol-2-yl]methyl}ethanamine], in series [1], the midpoint of the response, the EC50, lay at 15000 nM. Besides, the “MTT TD50” value in the series with HEp-2 cells (setting [2]) was over 32 µM.

Take `Clc1ccccc1CN(Cc1cccn1-c1nncs1)Cc1cccn1-c1nncs1` [Example 18, 1-(2-chlorophenyl)-N,N-bis{[1-(1,3,4-thiadiazol-2-yl)-1H-pyrrol-2-yl]methyl}methanamine]: the 50% effective concentration (EC50) in series [1] was determined as 62 nM. Further, in the series with HEp-2 cells (setting [2]), the “MTT TD50” value is over 32 µM.

Turning to `C[C@H](c1ccccc1Cl)N(Cc1cccn1-c1nncs1)Cc1cccn1-c1nncs1` [Example 19, (1R)-1-(2-chlorophenyl)-N,N-bis{[1-(1,3,4-thiadiazol-2-yl)-1H-pyrrol-2-yl]methyl}ethanamine], it took 2800 nM to reach a half-maximal effect in series [1] (EC50). For the same molecule, in the series on HEp-2 cells (setting [2]), the “MTT TD50” value was over 32 µM.

`C[C@@H](c1ccccc1Cl)N(Cc1cccn1-c1nncs1)Cc1cccn1-c1nncs1` [Example 20, (1S)-1-(2-chlorophenyl)-N,N-bis{[1-(1,3,4-thiadiazol-2-yl)-1H-pyrrol-2-yl]methyl}ethanamine] yielded an EC50 in series [1] of 360 nM. In addition, the “MTT TD50” value in the series on HEp-2 cells (setting [2]) is over 32 µM.

In series [1], `c1ccc(C2(CCN(Cc3cccn3-c3nncs3)Cc3cccn3-c3nncs3)CC2)nc1` [Example 21, 2-[1-(pyridin-2-yl)cyclopropyl]-N,N-bis{[1-(1,3,4-thiadiazol-2-yl)-1H-pyrrol-2-yl]methyl}ethanamine] gave an EC50 of 62 nM. Also, the “MTT TD50” value with HEp-2 cells (setting [2]) is over 32 µM.

Regarding `c1ccc(N(Cc2cccn2-c2nncs2)Cc2cccn2-c2nncs2)cc1` [Example 22, N,N-bis{[1-(1,3,4-thiadiazol-2-yl)-1H-pyrrol-2-yl]methyl}aniline], in series [1], the EC50 came to 28000 nM. In addition, the “MTT TD50” value with HEp-2 cells (setting [2]) is over 32 µM.

Take `FC1(F)CCC(CN(Cc2cccn2-c2nncs2)Cc2cccn2-c2nncs2)CC1` [Example 23, 1-(4,4-difluorocyclohexyl)-N,N-bis{[1-(1,3,4-thiadiazol-2-yl)-1H-pyrrol-2-yl]methyl}methanamine]: a half-maximal response in series [1] (EC50) required 2400 nM. For the same molecule, in the series with HEp-2 cells (setting [2]), the “MTT TD50” value was over 100 µM.

`c1cncc(C2(CCN(Cc3cccn3-c3nncs3)Cc3cccn3-c3nncs3)CC2)c1` [Example 24, 2-[1-(pyridin-3-yl)cyclopropyl]-N,N-bis{[1-(1,3,4-thiadiazol-2-yl)-1H-pyrrol-2-yl]methyl}ethanamine] gave an EC50 in series [1] of 2900 nM. The “MTT TD50” value in the series on HEp-2 cells (setting [2]) is over 100 µM.

`CC(Cc1cccs1)N(Cc1cccn1-c1nncs1)Cc1cccn1-c1nncs1` (centres unmarked) [Example 25, N,N-bis{[1-(1,3,4-thiadiazol-2-yl)-1H-pyrrol-2-yl]methyl}-1-(thiophen-2-yl)propan-2-amine] gave an EC50 in series [1] of 7500 nM. Further, the “MTT TD50” value in the series with HEp-2 cells (human, 4 days) was 55 µM.

In series [1], `c1cncc(C2(CN(Cc3cccn3-c3nncs3)Cc3cccn3-c3nncs3)CC2)c1` [Example 26, 1-[1-(pyridin-3-yl)cyclopropyl]-N,N-bis{[1-(1,3,4-thiadiazol-2-yl)-1H-pyrrol-2-yl]methyl}methanamine] returned an EC50 of 1100 nM. Moreover, the “MTT TD50” value in the series with HEp-2 cells (setting [2]) was over 100 µM.

The molecule `c1cc(CN(CCC2(c3ccncc3)CC2)Cc2cccn2-c2nncs2)n(-c2nncs2)c1` [Example 27, 2-[1-(pyridin-4-yl)cyclopropyl]-N,N-bis{[1-(1,3,4-thiadiazol-2-yl)-1H-pyrrol-2-yl]methyl}ethanamine] gave a half-maximal effective concentration (EC50) in series [1] of 810 nM. Besides, the “MTT TD50” value in the series with HEp-2 cells (human, 4 days) is over 32 µM.

In series [1], `N#Cc1cc(CN(Cc2cccn2-c2nncs2)Cc2cccn2-c2nncs2)cs1` [Example 28, 4-[(bis{[1-(1,3,4-thiadiazol-2-yl)-1H-pyrrol-2-yl]methyl}amino)methyl]thiophene-2-carbonitrile] yielded an EC50 of 760 nM. The “MTT TD50” value in the series with HEp-2 cells (setting [2]) is over 100 µM.

Regarding `Clc1ccc(CN(Cc2cccn2-c2nccs2)Cc2cccn2-c2nccs2)c(Cl)c1` [Example 29, 1-(2,4-dichlorophenyl)-N,N-bis{[1-(1,3-thiazol-2-yl)-1H-pyrrol-2-yl]methyl}methanamine], in series [1], the concentration giving a half-maximal response (EC50) amounted to 320 nM. Besides, the “MTT TD50” value with HEp-2 cells (setting [2]) is over 32 µM.

`COc1ccc(CN(Cc2cccn2-c2nccs2)Cc2cccn2-c2nccs2)c(OC)c1` [Example 30, 1-(2,4-dimethoxyphenyl)-N,N-bis{[1-(1,3-thiazol-2-yl)-1H-pyrrol-2-yl]methyl}methanamine] yielded an EC50 in series [1] of 54 nM. In addition, the “MTT TD50” value in the series with HEp-2 cells (setting [2]) came out at 4.9 µM.

The molecule `c1ccc(CN(Cc2cccn2-c2nccs2)Cc2cccn2-c2nccs2)cc1` [Example 31, 1-phenyl-N,N-bis{[1-(1,3-thiazol-2-yl)-1H-pyrrol-2-yl]methyl}methanamine] returned an EC50 in series [1] of 110 nM. Besides, the “MTT TD50” value with HEp-2 cells (setting [2]) came out at 5.4 µM.

As to `c1cc(CN(Cc2cccn2-c2nccs2)CC2C[C@H]3CC[C@@H]2C3)n(-c2nccs2)c1` (stereo partly drawn) [Example 32, 1-[(1R,4S)-bicyclo[2.2.1]hept-2-yl]-N,N-bis{[1-(1,3-thiazol-2-yl)-1H-pyrrol-2-yl]methyl}methanamine], the concentration giving a half-maximal response (EC50) in series [1] was 410 nM. Besides, the “MTT TD50” value in the series on HEp-2 cells (setting [2]) stood at 4.1 µM.

`c1cc(CN(Cc2cccn2-c2nccs2)CC2CCCO2)n(-c2nccs2)c1` (centres unmarked) [Example 33, 1-(tetrahydrofuran-2-yl)-N,N-bis{[1-(1,3-thiazol-2-yl)-1H-pyrrol-2-yl]methyl}methanamine] came in with a half-maximal effective concentration (EC50) in series [1] of 4600 nM. In the series on HEp-2 cells (setting [2]), the “MTT TD50” value is 16 µM.

For the molecule `FC(F)(F)c1ccc(CN(Cc2cccn2-c2nccs2)Cc2cccn2-c2nccs2)cc1` [Example 34, 1-[1-(1,3-thiazol-2-yl)-1H-pyrrol-2-yl]-N-{[1-(1,3-thiazol-2-yl)-1H-pyrrol-2-yl]methyl}-N-[4-(trifluoromethyl)benzyl]methanamine], the 50% effective concentration (EC50) in series [1] worked out at 3400 nM. In the series on HEp-2 cells (setting [2]), the “MTT TD50” value is 34 µM.

In series [1], `Cc1cc(N(Cc2cccn2-c2nccs2)Cc2cccn2-c2nccs2)n(-c2ccccc2)n1` [Example 35, 3-methyl-1-phenyl-N,N-bis{[1-(1,3-thiazol-2-yl)-1H-pyrrol-2-yl]methyl}-1H-pyrazol-5-amine] registered an EC50 of 47 nM. Also, the “MTT TD50” value with HEp-2 cells (setting [2]) is over 32 µM.

In turn, `Clc1cccc(Cl)c1CN(Cc1cccn1-c1nccs1)Cc1cccn1-c1nccs1` [Example 36, 1-(2,6-dichlorophenyl)-N,N-bis{[1-(1,3-thiazol-2-yl)-1H-pyrrol-2-yl]methyl}methanamine] had an EC50 in series [1] of 33 nM. For the same molecule, the “MTT TD50” value in the series on HEp-2 cells (setting [2]) came out at 24 µM.
